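The concentration for 50% growth inhibition is given as GI50. TGI marks complete inhibition of growth.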
Experiments:
Assay in all cases: NCI tumour cell line growth inhibition, 384-well format
[1] = test system: NCI-H226 lung
[2] = test system: NCI-H23 lung
[3] = test system: NCI-H322M lung
[4] = test system: NCI-H460 NSCLC
[5] = test system: NCI-H522 lung
[6] = test system: NCI/ADR-RES ovarian
[7] = test system: OVCAR-3 ovarian
[8] = test system: OVCAR-4 ovarian
[9] = test system: OVCAR-5 ovarian
[10] = test system: OVCAR-8 ovarian
[11] = test system: PC-3 prostate
[12] = test system: RPMI-8226 leukemia
[13] = test system: RXF 393 renal
[14] = test system: SF-268 CNS
[15] = test system: SF-295 CNS
[16] = test system: SF-539 CNS
[17] = test system: SK-MEL-28 melanoma
[18] = test system: SK-MEL-5 melanoma
[19] = test system: SK-OV-3 ovarian
[20] = test system: SN12C renal
[21] = test system: SNB-19 CNS
[22] = test system: SNB-75 CNS
[23] = test system: SR leukemia
[24] = test system: SW-620 colon
[25] = test system: T-47D breast
[26] = test system: TK-10 renal
[27] = test system: U251 glioblastoma
[28] = test system: UACC-257 melanoma
[29] = test system: UO-31 renal

O=C(NO)c1ccc(CN(c2cnccn2)c2cnccn2)cc1
GI50 [1]: 12.4 µM
TGI [1]: 25.1 µM
GI50 [2]: 2.01 µM
TGI [2]: 3.96 µM
GI50 [3]: 9.66 µM
TGI [3]: 22.4 µM
GI50 [4]: 10.2 µM
TGI [4]: 22.1 µM
GI50 [5]: 4.84 µM
TGI [5]: 16.2 µM
GI50 [6]: 4.36 µM
TGI [6]: 15.1 µM
GI50 [7]: 3.27 µM
TGI [7]: 12.2 µM
GI50 [8]: 5.94 µM
TGI [8]: 19 µM
GI50 [9]: 11 µM
TGI [9]: 31.2 µM
GI50 [10]: 1.81 µM
TGI [10]: 3.86 µM
GI50 [11]: 7.66 µM
TGI [11]: 20.9 µM
GI50 [12]: 1.35 µM
TGI [12]: 2.81 µM
GI50 [13]: 3.83 µM
TGI [13]: 14.2 µM
GI50 [14]: 8.01 µM
TGI [14]: 20.9 µM
GI50 [15]: 2.62 µM
TGI [15]: 6.48 µM
GI50 [16]: 2.95 µM
TGI [16]: 10.6 µM
GI50 [17]: 2.93 µM
TGI [17]: 7.33 µM
GI50 [18]: 4.27 µM
TGI [18]: 12.8 µM
GI50 [19]: 12.2 µM
TGI [19]: 25.1 µM
GI50 [20]: 14.7 µM
TGI [20]: 28.1 µM
GI50 [21]: 13 µM
TGI [21]: 26.6 µM
GI50 [22]: 5.98 µM
TGI [22]: 18.2 µM
GI50 [23]: 1.77 µM
TGI [23]: 3.87 µM
GI50 [24]: 10.6 µM
TGI [24]: 22.7 µM
GI50 [25]: 5.59 µM
TGI [25]: 17.6 µM
GI50 [26]: 12.9 µM
TGI [26]: 26.4 µM
GI50 [27]: 4.7 µM
TGI [27]: 15.6 µM
GI50 [28]: 5.02 µM
TGI [28]: 17.8 µM
GI50 [29]: 13.5 µM
TGI [29]: 26.6 µM

Source: PubChem BioAssay (NCI)
